The source of these data is US8097252B2, “Methods and compositions for administering therapeutic and diagnostic agents” (Immunomedics, Inc., priority 2003, dated 2012).

Starred links: 1 amine or outer side, 2 acyl side, 3 side chain; linkers in the order of their positions; H or OH if unused. Non-standard residues stand in square brackets, D forms with d. Residues, ends and D or L forms follow the SMILES beside them. Groups on a side chain read outwards from the residue. *: point of attachment. DTPA = O=C(O)CN(CCN(CC(=O)O)CC(=O)O)CCN(CC(=O)O)CC(=O)*; NH(2-(imidazol-4-yl)ethyl) = c1ncc(CCN*)[nH]1; Suc = O=C(CCC(=O)[*:2])[*:1]

One series has as its system B-cell lymphoma. The experiment in a line: Therapy of B-cell lymphoma patient with internalization by cross-linking. It is filed as in vivo. The method, then: A patient having B-cell lymphoma with extensive node involvement is infused intraveneously with a sterile, pyrogen-free solution containing a target dose of bispecific hA20Fab-679scFv prepared as described in U.S. application Ser. Nos. 09/337,756 and 60/360,229. After 24 hours, the patient then is infused intraveneously with a sterile, pyrogen-free PBS solution that contains a therapeutic dose of DTPA-Gln-Ala-Lys(HSG)-D-[I-131Tyr]-Lys(HSG)-NH2. After 24 hours the patient then is intraveneously infused with 50 mg of sterile, pyrogen-free PBS solution of bispecific hLL1IgG[734scFv]. […] This administration is illustrated schematically in FIG. 6-9.

Series [1] in a line: Biodistribution in nude mice bearing GW-39 xenografts (lock and chase). Format: in vivo. Particulars: mouse, tumor (GW-39 xenograft), iv, 76 ng, total radioactivity, 3 hrs post-IMP-272, assumption, read-out: amount in tumor. The method, then: To study the half-life of a pretargeted defined chemical substance (DCS), known as IMP-272 on a tumor, the following experiment is performed in nude mice bearing GW-39 human colorectal cancer xenografts. Animals receive three injections as follows: first injection of anti-CEA BS1.5HP diabody (hMN-14×679) followed 24 hours later with IMP-272, which is followed 3 hours later by the anti-In-DTPA F(ab′)2 antibody, 734. BS1.5HP is labeled with ^125I and the IMP-272 is labeled with ^111In. The synthesis and use of this diabody is disclosed in Clin. Cancer Res. 9:3886s-3896s (2003), and is herein incorporated in its entirety by reference. Known standard molecular biology methods were used to prepare the BS1.5HP
To test for maximum cross-linking of peptide on the surface of the tumor, the total protein dose of 734 F(ab′)2 injected ranges from 10 μg to 100 μg. Four groups of mice are administered 10 μCi ^125I-BS1.5HP (27 μg, 5.0×10^−10 moles) followed 24 hours later by 25 μCi ^111In-IMP-272 (5.0×10^−11 moles) for a bispecific:IMP-272 ratio of 10:1. IMP-272 is administered 3 hours before the administration of 734 F(ab′)2 to target the tumor and clear from the blood. […]
At the specified necropsy time, 5 animals are anesthetized, bled by cardiac puncture followed by cervical dislocation. […] Tissues is counted in a calibrated gamma counter for ^111In and ^125I. […]

Series [2] can be described thus: Stability of 111In IMP 272 in fresh nude mouse serum. It is filed as in vitro ADME. The note with it: 37° C., 24 hr. The method, then: (§1) ^111InCl3 (30.4 μL) was added to 500 μL of DI H2O. This solution was added to the prepared vial of IMP 272 and allowed to sit for approximately 20 minutes at room temperature. An additional 600 μL of cold In Acetate Buffer (1.0×10^−4M InCl3, 0.5M NaOAc, pH 6.5) was then added to the same vial and allowed to sit for an additional 45 minutes. The total volume was 1130 μL with a molar quantity of […] of IMP 272 yielding a concentration of 8.777×10^−6M. After the labeling was completed, the peptide was tested for stability in fresh human and nude mouse serum over 24 hrs. The peptide was also tested for binding to humanized antibodies; m679×hMN14, and, m734×hMN14.
^111In IMP 272, 44 μL, was added to 400 μl fresh nude mouse serum. This was vortexed and placed under a constant temperature of 37° C. The peptide concentration for this mixture was 8.698×10^−7M.

The nature of series [3]: Stability of 111In IMP 272 in fresh human serum. Format: in vitro ADME. The note with it: 37° C. The procedure:
as §1
^111In IMP 272, 60 μL, was added to 540 μL fresh human serum. This was vortexed and placed under a constant temperature of 37° C. The peptide concentration for this mixture was 8.777×10^−7M.

“DTPA-Gln-Ala-Lys(HSG)-D-[I-131Tyr]-Lys(HSG)-NH2”: in the series on B-cell lymphoma (CAT scans over the next few months), the “size of the lymphoma-involved nodes” value is reported as “significant reduction”. In the series on B-cell lymphoma (radioimmunodetection), the “localization and retention of I-131 in lymphoma involved nodes” value was “intensive localization and long retention”.

Turning to `C[C@H](NC(=O)[C@H](CCC(N)=O)NC(=O)CN(CCN(CCN(CC(=O)O)CC(=O)O)CC(=O)O)CC(=O)O)C(=O)N[C@@H](CCCCNC(=O)CNC(=O)CCC(=O)NCCc1c[nH]cn1)C(=O)N[C@H](Cc1ccc(O)cc1)C(=O)N[C@@H](CCCCNC(=O)CNC(=O)CCC(=O)NCCc1c[nH]cn1)C(N)=O` (111In complex, metal not drawn) [IMP 272, DTPA-Gln-Ala-Lys(HSG)-D-Tyr-Lys(HSG)-NH2] ({DTPA}-QAK([Gly-Suc-NH(2-(imidazol-4-yl)ethyl)])[dY]K([Gly-Suc-NH(2-(imidazol-4-yl)ethyl)])-NH2), the tissue uptake at 3 h in series [1] is ~20 %ID/g. Besides, in series [2], the “stability in mouse serum” value is reported as “stable”. The “stability in human serum (conclusion)” value in series [3] is recorded as “partially metabolized”. Besides, in series [3] (1 hour), the “peptide state after incubation in human serum” value is recorded as “intact”. Also, in series [3] (24 hr), the “binding to HSG after incubation in human serum” value is “lost some of the binding to HSG”. Further, the “binding to one of the two HSG's compromised” value in series [3] (24 hr, size exclusion HPLC) is reported as “about 50%”.
